Experimental data from ChEMBL document CHEMBL1143424, “Diversity of penA alterations and subtypes in Neisseria gonorrhoeae strains from Sydney, Australia, that are less susceptible to ceftriaxone” (2007).
Values after ≈ are worked out from the molar mass of the structure shown.

Experiments:
[1] = test system: Neisseria gonorrhoeae; experiment: Antimicrobial activity against Neisseria gonorrhoeae isolate with PBP2 pattern 13 mutant NG-MAST sequence type 1148 by agar plate dilution method; format: functional
[2] = test system: Neisseria gonorrhoeae; experiment: Antimicrobial activity against Neisseria gonorrhoeae isolate with PBP2 pattern 13 mutant NG-MAST sequence type 1413 by agar plate dilution method; format: functional
[3] = test system: Neisseria gonorrhoeae; experiment: Antimicrobial activity against Neisseria gonorrhoeae isolate with PBP2 pattern 13 mutant NG-MAST sequence type 1425 by agar plate dilution method; format: functional
[4] = test system: Neisseria gonorrhoeae; experiment: Antimicrobial activity against Neisseria gonorrhoeae isolate with PBP2 pattern 17 mutant NG-MAST sequence type 1620 by agar plate dilution method; format: functional
[5] = test system: Neisseria gonorrhoeae; experiment: Antimicrobial activity against Neisseria gonorrhoeae isolate with PBP2 pattern 18 mutant NG-MAST sequence type 1621 by agar plate dilution method; format: functional
[6] = test system: Neisseria; experiment: Antimicrobial activity against multiresistant Gonococcus; format: functional
[7] = test system: Neisseria gonorrhoeae; experiment: Antimicrobial activity against Neisseria gonorrhoeae isolate with PBP2 pattern 4 mutant NG-MAST sequence type 327 by agar plate dilution method; format: functional
[8] = test system: Neisseria gonorrhoeae; experiment: Antimicrobial activity against Neisseria gonorrhoeae isolate with PBP2 pattern 7 mutant NG-MAST sequence type 1422 by agar plate dilution method; format: functional
[9] = test system: Neisseria gonorrhoeae; experiment: microbe, parasite or virus in culture
Description: Antimicrobial activity against Neisseria gonorrhoeae isolate with PBP2 pattern 13 mutant NG-MAST sequence type 1409 by agar plate dilution method

[10] = test system: Neisseria gonorrhoeae; experiment: microbe, parasite or virus in culture; remark: listed apart in the source
Description: Antimicrobial activity against Neisseria gonorrhoeae isolate with PBP2 pattern 13 mutant NG-MAST sequence type 1623 by agar plate dilution method

[11] = test system: Neisseria gonorrhoeae; experiment: microbe, parasite or virus in culture; remark: listed apart in the source
Description: Antimicrobial activity against Neisseria gonorrhoeae isolate with PBP2 pattern 13 mutant NG-MAST sequence type 1624 by agar plate dilution method

[12] = test system: Neisseria gonorrhoeae; experiment: microbe, parasite or virus in culture; remark: listed apart in the source
Description: Antimicrobial activity against Neisseria gonorrhoeae isolate with PBP2 pattern 13 mutant NG-MAST sequence type 1676 by agar plate dilution method

[13] = test system: Neisseria gonorrhoeae; experiment: microbe, parasite or virus in culture; remark: listed apart in the source
Description: Antimicrobial activity against Neisseria gonorrhoeae isolate with PBP2 pattern 17 mutant NG-MAST sequence type 1342 by agar plate dilution method

[14] = test system: Neisseria gonorrhoeae; experiment: microbe, parasite or virus in culture; remark: listed apart in the source
Description: Antimicrobial activity against Neisseria gonorrhoeae isolate with PBP2 pattern 18 mutant NG-MAST sequence type 864 by agar plate dilution method

[15] = test system: Neisseria gonorrhoeae; experiment: microbe, parasite or virus in culture; remark: listed apart in the source
Description: Antimicrobial activity against Neisseria gonorrhoeae isolate with PBP2 pattern 20 mutant NG-MAST sequence type 211 by agar plate dilution method

[16] = test system: Neisseria gonorrhoeae; experiment: microbe, parasite or virus in culture; remark: listed apart in the source
Description: Antimicrobial activity against Neisseria gonorrhoeae isolate bropyst serotype with PBP2 pattern 12 mutant NG-MAST sequence type 604 by agar plate dilution method

[17] = test system: Neisseria gonorrhoeae; experiment: microbe, parasite or virus in culture; remark: listed apart in the source
Description: Antimicrobial activity against Neisseria gonorrhoeae isolate with PBP2 pattern 12 mutant NG-MAST sequence type 604 by agar plate dilution method

[18] = test system: Neisseria gonorrhoeae; experiment: microbe, parasite or virus in culture; remark: listed apart in the source
Description: Antimicrobial activity against Neisseria gonorrhoeae isolate with PBP2 pattern 4 mutant NG-MAST sequence type 69 by agar plate dilution method

[19] = test system: Neisseria gonorrhoeae; experiment: microbe, parasite or virus in culture; remark: listed apart in the source
Description: Antimicrobial activity against Neisseria gonorrhoeae isolate with PBP2 pattern 5 mutant NG-MAST sequence type 1410 by agar plate dilution method

[20] = test system: Neisseria gonorrhoeae; experiment: microbe, parasite or virus in culture; remark: listed apart in the source
Description: Antimicrobial activity against Neisseria gonorrhoeae isolate with PBP2 pattern 5 mutant NG-MAST sequence type 1688 by agar plate dilution method

[21] = test system: Neisseria gonorrhoeae; experiment: microbe, parasite or virus in culture; remark: listed apart in the source
Description: Antimicrobial activity against Neisseria gonorrhoeae isolate with PBP2 pattern 7 mutant NG-MAST sequence type 1619 by agar plate dilution method

[22] = test system: Neisseria gonorrhoeae; experiment: microbe, parasite or virus in culture; remark: listed apart in the source
Description: Antimicrobial activity against Neisseria gonorrhoeae isolate with PBP2 pattern 7 mutant NG-MAST sequence type 1622 by agar plate dilution method

[23] = test system: Neisseria gonorrhoeae; experiment: microbe, parasite or virus in culture; remark: listed apart in the source
Description: Antimicrobial activity against Neisseria gonorrhoeae isolate with PBP2 pattern 9 mutant NG-MAST sequence type 5 by agar plate dilution method

[24] = test system: Neisseria gonorrhoeae; experiment: microbe, parasite or virus in culture; remark: listed apart in the source
Description: Antimicrobial activity against Neisseria gonorrhoeae isolate with PBP2 pattern 9 mutant NG-MAST sequence type 21 by agar plate dilution method

[25] = test system: Neisseria gonorrhoeae; experiment: microbe, parasite or virus in culture; remark: listed apart in the source
Description: Antimicrobial activity against Neisseria gonorrhoeae isolate with PBP2 pattern 10 mutant NG-MAST sequence type 1414 by agar plate dilution method

[26] = test system: Neisseria gonorrhoeae; experiment: microbe, parasite or virus in culture; remark: listed apart in the source
Description: Antimicrobial activity against Neisseria gonorrhoeae isolate with PBP2 pattern 10 mutant NG-MAST sequence type 1424 by agar plate dilution method

[27] = test system: Neisseria gonorrhoeae; experiment: microbe, parasite or virus in culture; remark: listed apart in the source
Description: Antimicrobial activity against Neisseria gonorrhoeae isolate with PBP2 pattern 10 mutant NG-MAST sequence type 1677 by agar plate dilution method

[28] = test system: Neisseria gonorrhoeae; experiment: microbe, parasite or virus in culture; remark: listed apart in the source
Description: Antimicrobial activity against Neisseria gonorrhoeae isolate with PBP2 pattern 10 mutant NG-MAST sequence type 326 by agar plate dilution method

[29] = test system: Neisseria gonorrhoeae; experiment: microbe, parasite or virus in culture; remark: listed apart in the source
Description: Antimicrobial activity against Neisseria gonorrhoeae isolate with PBP2 pattern 10 mutant NG-MAST sequence type 835 by agar plate dilution method

[30] = test system: Neisseria gonorrhoeae; experiment: microbe, parasite or virus in culture; remark: listed apart in the source
Description: Antimicrobial activity against Neisseria gonorrhoeae isolate with PBP2 pattern 10 mutant NG-MAST sequence type 925 by agar plate dilution method

[31] = test system: Neisseria gonorrhoeae; experiment: microbe, parasite or virus in culture; remark: listed apart in the source
Description: Antimicrobial activity against Neisseria gonorrhoeae isolate with PBP2 pattern 11 mutant NG-MAST sequence type 1420 by agar plate dilution method

[32] = test system: Neisseria gonorrhoeae; experiment: microbe, parasite or virus in culture; remark: listed apart in the source
Description: Antimicrobial activity against Neisseria gonorrhoeae isolate with PBP2 pattern 11 mutant NG-MAST sequence type 5 by agar plate dilution method

[33] = test system: Neisseria gonorrhoeae; experiment: microbe, parasite or virus in culture; remark: listed apart in the source
Description: Antimicrobial activity against Neisseria gonorrhoeae isolate with PBP2 pattern 12 mutant NG-MAST sequence type 1426 by agar plate dilution method

[34] = test system: Neisseria gonorrhoeae; experiment: microbe, parasite or virus in culture; remark: listed apart in the source
Description: Antimicrobial activity against Neisseria gonorrhoeae isolate with PBP2 pattern 12 mutant NG-MAST sequence type 1703 by agar plate dilution method

SMILES: CO/N=C(\C(=O)N[C@@H]1C(=O)N2C(C(=O)O)=C(CSc3nc(=O)c(O)nn3C)CS[C@H]12)c1csc(N)n1 [CEFTRIAXONE]
- MIC [1]: 0.12 µg/mL (≈ 0.216 µM)
- MIC [2]: 0.12 µg/mL (≈ 0.216 µM)
- MIC [3]: 0.12 µg/mL (≈ 0.216 µM)
- MIC [4]: 0.12 µg/mL (≈ 0.216 µM)
- MIC [5]: 0.12 µg/mL (≈ 0.216 µM)
- MIC [6]: 0.5 µg/mL (≈ 0.902 µM)
- MIC [7]: 0.12 µg/mL (≈ 0.216 µM)
- MIC [8]: 0.12 µg/mL (≈ 0.216 µM)
- MIC [9]: 0.06 µg/mL (≈ 0.108 µM)
- MIC [10]: 0.06 µg/mL (≈ 0.108 µM)
- MIC [11]: 0.06 µg/mL (≈ 0.108 µM)
- MIC [12]: 0.06 µg/mL (≈ 0.108 µM)
- MIC [13]: 0.06 µg/mL (≈ 0.108 µM)
- MIC [14]: 0.06 µg/mL (≈ 0.108 µM)
- MIC [15]: 0.06 µg/mL (≈ 0.108 µM)
- MIC [16]: 0.06 µg/mL (≈ 0.108 µM)
- MIC [17]: 0.06 µg/mL (≈ 0.108 µM)
- MIC [18]: 0.06 µg/mL (≈ 0.108 µM)
- MIC [19]: 0.06 µg/mL (≈ 0.108 µM)
- MIC [20]: 0.06 µg/mL (≈ 0.108 µM)
- MIC [21]: 0.06 µg/mL (≈ 0.108 µM)
- MIC [22]: 0.06 µg/mL (≈ 0.108 µM)
- MIC [23]: 0.06 µg/mL (≈ 0.108 µM)
- MIC [24]: 0.06 µg/mL (≈ 0.108 µM)
- MIC [25]: 0.06 µg/mL (≈ 0.108 µM)
- MIC [26]: 0.06 µg/mL (≈ 0.108 µM)
- MIC [27]: 0.06 µg/mL (≈ 0.108 µM)
- MIC [28]: 0.06 µg/mL (≈ 0.108 µM)
- MIC [29]: 0.06 µg/mL (≈ 0.108 µM)
- MIC [30]: 0.06 µg/mL (≈ 0.108 µM)
- MIC [31]: 0.06 µg/mL (≈ 0.108 µM)
- MIC [32]: 0.06 µg/mL (≈ 0.108 µM)
- MIC [33]: 0.06 µg/mL (≈ 0.108 µM)
- MIC [34]: 0.06 µg/mL (≈ 0.108 µM)
